{"source": "patent US5308836A", "about": "“Pharmaceutical composition of stabilized [Leu^13 ]-motilin-Hse” (Sanwa Kagaku Kenkyusho Co., Ltd., priority 1991, dated 1994)", "key": {"[1]": {"conditions": "compared with native type motilin and [Leu^13 ]-motilin; cited from earlier work"}, "[2]": {"type": "physicochemical", "conditions": "for Amount of formed [Leu^13 ]-motilin-Hse-lactone: aqueous solution 20 μg/ml", "procedure": "An aqueous solution containing 20 μg/ml of [Leu^13 ]-motilin-Hse was aseptically prepared by dissolving 1 mg of [Leu^13 ]-motilin-Hse in a refined water and adding 0.1N-sodium hydroxide and 0.1N-hydrochloric acid to adjust pH of the solution to 6.0 or 7.0.\nEach of the solutions different in pH value was aseptically charged in a glass vial to seal the same. Each vial was stored in a constant temperature bath kept at 60° C. for 30 days and then a remaining amount of [Leu^13 ]-motilin-Hse was measured with HPLC method. […]\nAn aqueous solution containing 20 μg of [Leu^13 ]-motilin-Hse and 30 mg/ml of tartaric acid was aseptically prepared by dissolving 1 mg of [Leu^13 ]-motilin-Hse and tartaric acid in a refined water and adding 0.1N-sodium hydroxide and 0.1N-hydrochloric acid to adjust pH of the solution to 6.0 or 7.0.\n(§1) Aqueous solutions, each containing 20 μg/ml of [Leu^13 ]-motilin were aseptically prepared by dissolving 1 mg of [Leu^13 ]-motilin in a refined water and adding 0.1N-sodium hydroxide and 0.1N-hydrochloric acid to adjust pH of each solution in various values.\nEach of the solutions different in pH value was aseptically charged in a glass vial to seal the same. Each vial was stored in a constant temperature bath kept at 60° C. for 30 days and then a remaining amount of [Leu^13 ]-motilin was measured with HPLC method to check the relation with the pH value of the solution.\nAqueous solutions, each containing 20 μg/ml of [Leu^13 ]-motilin-Hsewere aseptically prepared by dissolving 1 mg of [Leu^13 ]-motilin-Hse in a refined water and adding 0.1 N-sodium hydroxide and 0.1 N-hydrochloric acid to adjust pH of each solution in various values.\nEach of the solutions different in pH value was aseptically charged in a glass vial to seal the same. Each vial was stored in a constant temperature bath kept at 60° C. for 30 days and then a remaining amount of [Leu^13 ]-motilin-Hse and amount of [Leu^13 ]-motilin-Hse-lactone formed by modification of Hse residue at 23-position of the former were measured with HPLC method to check the relation with the pH value of the solution.\nAqueous solutions, each containing 20 μg/ml of [Leu^13 ]-motilin-Hseand 30 mg/ml of tartaric acid were aseptically prepared by dissolving 1 mg of [Leu^13 ]-motilin-Hse and tartaric acid in a refined water and adding 0.1 N-sodium hydroxide and 0.1 N-hydrochloric acid to adjust pH of each solution in various values.\nAqueous solutions, each containing 20 μg/ml of [Leu^13 ]-motilin-Hseand 27.2 mg/ml of potassium dihydrogenphosphate were aseptically prepared by dissolving 1 mg of [Leu^13 ]-motilin-Hse and potassium dihydrogenphosphate in a refined water and adding 0.1 N sodium hydroxide and 0.1 N-hydrochloric acid to adjust pH of each solution in various values."}, "[3]": {"type": "physicochemical", "conditions": "lyophilized powder, no additive", "procedure": "as §1\nEach of the solutions different in pH value was aseptically charged in a glass vial to lyophilize the same. Each vial was stored in a constant temperature bath kept at 60° C. for 30 days and then a remaining amount of [Leu^13 ]-motilin was measured with HPLC method to check the relation with the pH value of the solution.\nAqueous solutions, each containing 20 μg/ml of [Leu^13 ]-motilin-Hsewere aseptically prepared by dissolving 1 mg of [Leu^13 ]-motilin-Hse in a refined water and adding 0.1N-sodium hydroxide and 0.1N-hydrochloric acid to adjust pH of each solution in various values.\nEach of the solutions different in pH value was aseptically charged in a glass vial to lyophilize the same. Each vial was stored in a constant temperature bath kept at 60° C. for 30 days and then a remaining amount of [Leu^13 ]-motilin-Hse and amount of [Leu^13 ]-motilin-Hse-lactone formed by modification of Hse residue at 23-position of the former were measured with HPLC method to check the relation with the pH value of the solution. […]"}}, "note": "Read-outs that look alike come from different tables or passages of the source.", "data": [{"substance": "[Leu^13 ]-motilin-Hse", "values": [{"measurement": "biological activities", "setting": "[1]", "value": "higher biological activities"}, {"measurement": "pH range of relatively stable state", "setting": "[2]; [Leu^13 ]-motilin-Hse aqueous solution, no additive, 60° C. 30 days", "value": "4.0-6.0"}, {"measurement": "Amount of formed [Leu^13 ]-motilin-Hse-lactone", "setting": "[2]; 27.2 mg/ml potassium dihydrogenphosphate, pH 3.0, 60° C. 30 days", "value": 31.1, "unit": "%"}, {"measurement": "Amount of formed [Leu^13 ]-motilin-Hse-lactone", "setting": "[2]; 27.2 mg/ml potassium dihydrogenphosphate, pH 4.0, 60° C. 30 days", "value": 17.5, "unit": "%"}, {"measurement": "Amount of formed [Leu^13 ]-motilin-Hse-lactone", "setting": "[2]; 27.2 mg/ml potassium dihydrogenphosphate, pH 4.5, 60° C. 30 days", "value": 9.3, "unit": "%"}, {"measurement": "Amount of formed [Leu^13 ]-motilin-Hse-lactone", "setting": "[2]; 27.2 mg/ml potassium dihydrogenphosphate, pH 5.0, 60° C. 30 days", "value": 5.7, "unit": "%"}, {"measurement": "Amount of formed [Leu^13 ]-motilin-Hse-lactone", "setting": "[2]; 27.2 mg/ml potassium dihydrogenphosphate, pH 5.5, 60° C. 30 days", "value": 2.1, "unit": "%"}, {"measurement": "Amount of formed [Leu^13 ]-motilin-Hse-lactone", "setting": "[2]; 27.2 mg/ml potassium dihydrogenphosphate, pH 6.0, 60° C. 30 days", "value": 0, "unit": "%"}, {"measurement": "Amount of formed [Leu^13 ]-motilin-Hse-lactone", "setting": "[2]; 27.2 mg/ml potassium dihydrogenphosphate, pH 6.5, 60° C. 30 days", "value": 0, "unit": "%"}, {"measurement": "Amount of formed [Leu^13 ]-motilin-Hse-lactone", "setting": "[2]; 27.2 mg/ml potassium dihydrogenphosphate, pH 7.0, 60° C. 30 days", "value": 0, "unit": "%"}, {"measurement": "Amount of formed [Leu^13 ]-motilin-Hse-lactone", "setting": "[2]; 27.2 mg/ml potassium dihydrogenphosphate, pH 8.0, 60° C. 30 days", "value": 0, "unit": "%"}, {"measurement": "Amount of formed [Leu^13 ]-motilin-Hse-lactone", "setting": "[2]; 27.2 mg/ml potassium dihydrogenphosphate, pH 9.0, 60° C. 30 days", "value": 0, "unit": "%"}, {"measurement": "Amount of formed [Leu^13 ]-motilin-Hse-lactone", "setting": "[2]; 30 mg/ml tartaric acid, pH 3.0, 60° C. 30 days", "value": 29.7, "unit": "%"}, {"measurement": "Amount of formed [Leu^13 ]-motilin-Hse-lactone", "setting": "[2]; 30 mg/ml tartaric acid, pH 4.0, 60° C. 30 days", "value": 16.8, "unit": "%"}, {"measurement": "Amount of formed [Leu^13 ]-motilin-Hse-lactone", "setting": "[2]; 30 mg/ml tartaric acid, pH 4.5, 60° C. 30 days", "value": 6.4, "unit": "%"}, {"measurement": "Amount of formed [Leu^13 ]-motilin-Hse-lactone", "setting": "[2]; 30 mg/ml tartaric acid, pH 5.0, 60° C. 30 days", "value": 2.7, "unit": "%"}, {"measurement": "Amount of formed [Leu^13 ]-motilin-Hse-lactone", "setting": "[2]; 30 mg/ml tartaric acid, pH 5.5, 60° C. 30 days", "value": 1.5, "unit": "%"}, {"measurement": "Amount of formed [Leu^13 ]-motilin-Hse-lactone", "setting": "[2]; 30 mg/ml tartaric acid, pH 6.0, 60° C. 30 days", "value": 0, "unit": "%"}, {"measurement": "Amount of formed [Leu^13 ]-motilin-Hse-lactone", "setting": "[2]; 30 mg/ml tartaric acid, pH 6.5, 60° C. 30 days", "value": 0, "unit": "%"}, {"measurement": "Amount of formed [Leu^13 ]-motilin-Hse-lactone", "setting": "[2]; 30 mg/ml tartaric acid, pH 7.0, 60° C. 30 days", "value": 0, "unit": "%"}, {"measurement": "Amount of formed [Leu^13 ]-motilin-Hse-lactone", "setting": "[2]; 30 mg/ml tartaric acid, pH 8.0, 60° C. 30 days", "value": 0, "unit": "%"}, {"measurement": "Amount of formed [Leu^13 ]-motilin-Hse-lactone", "setting": "[2]; 30 mg/ml tartaric acid, pH 9.0, 60° C. 30 days", "value": 0, "unit": "%"}, {"measurement": "Amount of formed [Leu^13 ]-motilin-Hse-lactone", "setting": "[2]; no additive, pH 3.0, 60° C. 30 days", "value": 30.2, "unit": "%"}, {"measurement": "Amount of formed [Leu^13 ]-motilin-Hse-lactone", "setting": "[2]; no additive, pH 4.0, 60° C. 30 days", "value": 18.7, "unit": "%"}, {"measurement": "Amount of formed [Leu^13 ]-motilin-Hse-lactone", "setting": "[2]; no additive, pH 4.5, 60° C. 30 days", "value": 8.7, "unit": "%"}, {"measurement": "Amount of formed [Leu^13 ]-motilin-Hse-lactone", "setting": "[2]; no additive, pH 5.0, 60° C. 30 days", "value": 5.5, "unit": "%"}, {"measurement": "Amount of formed [Leu^13 ]-motilin-Hse-lactone", "setting": "[2]; no additive, pH 5.5, 60° C. 30 days", "value": 1.9, "unit": "%"}, {"measurement": "Amount of formed [Leu^13 ]-motilin-Hse-lactone", "setting": "[2]; no additive, pH 6.0, 60° C. 30 days", "value": 0, "unit": "%"}, {"measurement": "Amount of formed [Leu^13 ]-motilin-Hse-lactone", "setting": "[2]; no additive, pH 6.5, 60° C. 30 days", "value": 0, "unit": "%"}, {"measurement": "Amount of formed [Leu^13 ]-motilin-Hse-lactone", "setting": "[2]; no additive, pH 7.0, 60° C. 30 days", "value": 0, "unit": "%"}, {"measurement": "Amount of formed [Leu^13 ]-motilin-Hse-lactone", "setting": "[2]; no additive, pH 8.0, 60° C. 30 days", "value": 0, "unit": "%"}, {"measurement": "Amount of formed [Leu^13 ]-motilin-Hse-lactone", "setting": "[2]; no additive, pH 9.0, 60° C. 30 days", "value": 0, "unit": "%"}, {"measurement": "Amount of formed [Leu^13 ]-motilin-Hse-lactone", "setting": "[3]; solution pH 3.0, 60° C. 30 days", "value": 25.1, "unit": "%"}, {"measurement": "Amount of formed [Leu^13 ]-motilin-Hse-lactone", "setting": "[3]; solution pH 4.0, 60° C. 30 days", "value": 16.9, "unit": "%"}, {"measurement": "Amount of formed [Leu^13 ]-motilin-Hse-lactone", "setting": "[3]; solution pH 4.5, 60° C. 30 days", "value": 7.3, "unit": "%"}, {"measurement": "Amount of formed [Leu^13 ]-motilin-Hse-lactone", "setting": "[3]; solution pH 5.0, 60° C. 30 days", "value": 3.9, "unit": "%"}, {"measurement": "Amount of formed [Leu^13 ]-motilin-Hse-lactone", "setting": "[3]; solution pH 5.5, 60° C. 30 days", "value": 1.8, "unit": "%"}, {"measurement": "Amount of formed [Leu^13 ]-motilin-Hse-lactone", "setting": "[3]; solution pH 6.0, 60° C. 30 days", "value": 0, "unit": "%"}, {"measurement": "Amount of formed [Leu^13 ]-motilin-Hse-lactone", "setting": "[3]; solution pH 6.5, 60° C. 30 days", "value": 0, "unit": "%"}, {"measurement": "Amount of formed [Leu^13 ]-motilin-Hse-lactone", "setting": "[3]; solution pH 7.0, 60° C. 30 days", "value": 0, "unit": "%"}, {"measurement": "Amount of formed [Leu^13 ]-motilin-Hse-lactone", "setting": "[3]; solution pH 8.0, 60° C. 30 days", "value": 0, "unit": "%"}, {"measurement": "Amount of formed [Leu^13 ]-motilin-Hse-lactone", "setting": "[3]; solution pH 9.0, 60° C. 30 days", "value": 0, "unit": "%"}]}]}
